Source: PMC3759966 (The Biochemical journal, 2009)
One block for each compound: values may come before it.

Columns and labels:
[1] = biological target: T1, GST–LRRK2[G2019S]-(1326–2527) (Homo sapiens, UniProt Q5S007, G2019S); test: Peptide kinase assay with inhibitors; format: biochemical; settings: for inhibition of LRRK2[G2019S] (in words): 100 μM ATP
T1 sequence (Q5S007 1326-2527 G2019S): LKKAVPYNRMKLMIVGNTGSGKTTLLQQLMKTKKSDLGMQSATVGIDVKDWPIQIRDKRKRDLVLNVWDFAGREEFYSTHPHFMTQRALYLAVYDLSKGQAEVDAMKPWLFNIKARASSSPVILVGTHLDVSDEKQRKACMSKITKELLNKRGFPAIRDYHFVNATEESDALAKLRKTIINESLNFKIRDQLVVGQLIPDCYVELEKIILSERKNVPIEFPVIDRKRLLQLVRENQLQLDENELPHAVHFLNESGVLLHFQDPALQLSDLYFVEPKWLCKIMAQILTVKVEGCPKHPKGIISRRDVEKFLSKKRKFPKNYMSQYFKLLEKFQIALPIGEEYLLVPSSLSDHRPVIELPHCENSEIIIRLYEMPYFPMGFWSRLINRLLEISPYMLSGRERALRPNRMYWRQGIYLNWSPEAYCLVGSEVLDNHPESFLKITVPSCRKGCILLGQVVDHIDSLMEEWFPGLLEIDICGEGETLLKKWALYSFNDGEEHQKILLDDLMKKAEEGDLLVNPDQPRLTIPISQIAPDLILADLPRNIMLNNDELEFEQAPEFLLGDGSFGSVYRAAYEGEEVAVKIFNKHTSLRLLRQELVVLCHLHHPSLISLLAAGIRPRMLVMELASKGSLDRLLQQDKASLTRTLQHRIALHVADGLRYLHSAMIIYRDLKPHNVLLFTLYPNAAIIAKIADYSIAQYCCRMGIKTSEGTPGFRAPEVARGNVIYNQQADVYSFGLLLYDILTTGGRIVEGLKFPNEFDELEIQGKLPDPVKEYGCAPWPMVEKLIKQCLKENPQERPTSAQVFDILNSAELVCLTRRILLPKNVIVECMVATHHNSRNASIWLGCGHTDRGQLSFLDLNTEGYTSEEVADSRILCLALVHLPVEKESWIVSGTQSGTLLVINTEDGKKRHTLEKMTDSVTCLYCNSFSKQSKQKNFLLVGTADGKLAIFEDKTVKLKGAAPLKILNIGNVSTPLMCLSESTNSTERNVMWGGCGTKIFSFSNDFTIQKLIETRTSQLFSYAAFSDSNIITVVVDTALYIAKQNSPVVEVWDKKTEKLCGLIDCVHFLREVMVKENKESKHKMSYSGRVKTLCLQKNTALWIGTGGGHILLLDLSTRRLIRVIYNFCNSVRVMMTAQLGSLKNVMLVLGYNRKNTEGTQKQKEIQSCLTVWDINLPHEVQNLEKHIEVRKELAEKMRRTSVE

[2] = tested on: ERM protein phosphorylation (site equivalent to Thr567 of ezrin); test: ERM protein phosphorylation in HEK-293 cells; format: cell-based, human; settings: 10 μM, 1 h; in the presence or absence of G14V-Rho
[3] = tested on: phosphorylation of MYPT at Thr850; test: MYPT Thr850 phosphorylation in HEK-293 cells; format: cell-based, human; settings: 10 μM, 1 h; HEK-293 cells with or without G14V-Rho
[4] = tested on: panel of 85 protein kinases; test: Selectivity over kinase panel; format: biochemical; settings: 1 μM; out of the 85 kinases profiled
SmMLCK = SmMLCK (Homo sapiens, UniProt Q15746); test: Kinase profiling panel; format: biochemical; settings: read-out: percentage of kinase activity compared with control
SmMLCK, sequence (Q15746 923-1914): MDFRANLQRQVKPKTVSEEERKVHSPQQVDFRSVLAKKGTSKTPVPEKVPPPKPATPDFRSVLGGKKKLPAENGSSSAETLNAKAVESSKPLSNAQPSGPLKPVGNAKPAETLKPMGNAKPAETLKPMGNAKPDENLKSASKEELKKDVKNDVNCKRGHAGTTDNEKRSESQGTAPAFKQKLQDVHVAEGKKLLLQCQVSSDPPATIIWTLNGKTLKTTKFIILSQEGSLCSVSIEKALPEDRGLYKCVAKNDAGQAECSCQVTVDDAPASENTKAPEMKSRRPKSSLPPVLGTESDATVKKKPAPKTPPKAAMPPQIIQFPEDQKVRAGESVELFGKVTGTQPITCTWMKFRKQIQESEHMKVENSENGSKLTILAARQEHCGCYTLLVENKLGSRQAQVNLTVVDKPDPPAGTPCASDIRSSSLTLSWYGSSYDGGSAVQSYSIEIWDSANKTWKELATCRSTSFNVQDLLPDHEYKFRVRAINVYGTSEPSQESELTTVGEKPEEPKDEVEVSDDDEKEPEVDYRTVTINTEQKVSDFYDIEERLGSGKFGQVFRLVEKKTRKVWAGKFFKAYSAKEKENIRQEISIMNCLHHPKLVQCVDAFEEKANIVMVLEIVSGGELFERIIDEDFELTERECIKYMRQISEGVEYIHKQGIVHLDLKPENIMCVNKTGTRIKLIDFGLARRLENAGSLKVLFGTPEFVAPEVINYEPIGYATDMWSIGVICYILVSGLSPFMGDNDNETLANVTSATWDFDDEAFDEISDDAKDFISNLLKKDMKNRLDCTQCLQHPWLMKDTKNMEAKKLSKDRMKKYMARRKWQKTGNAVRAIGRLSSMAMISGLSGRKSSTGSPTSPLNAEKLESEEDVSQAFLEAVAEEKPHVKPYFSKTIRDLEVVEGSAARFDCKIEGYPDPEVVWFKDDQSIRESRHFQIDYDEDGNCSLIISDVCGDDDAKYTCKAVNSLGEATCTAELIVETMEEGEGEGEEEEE

BRSK2 = biological target: T2, BRSK2 (Homo sapiens, UniProt Q8IWQ3); test: Kinase profiling panel; format: biochemical; settings: read-out: percentage of kinase activity compared with control
T2 sequence (Q8IWQ3 1-736): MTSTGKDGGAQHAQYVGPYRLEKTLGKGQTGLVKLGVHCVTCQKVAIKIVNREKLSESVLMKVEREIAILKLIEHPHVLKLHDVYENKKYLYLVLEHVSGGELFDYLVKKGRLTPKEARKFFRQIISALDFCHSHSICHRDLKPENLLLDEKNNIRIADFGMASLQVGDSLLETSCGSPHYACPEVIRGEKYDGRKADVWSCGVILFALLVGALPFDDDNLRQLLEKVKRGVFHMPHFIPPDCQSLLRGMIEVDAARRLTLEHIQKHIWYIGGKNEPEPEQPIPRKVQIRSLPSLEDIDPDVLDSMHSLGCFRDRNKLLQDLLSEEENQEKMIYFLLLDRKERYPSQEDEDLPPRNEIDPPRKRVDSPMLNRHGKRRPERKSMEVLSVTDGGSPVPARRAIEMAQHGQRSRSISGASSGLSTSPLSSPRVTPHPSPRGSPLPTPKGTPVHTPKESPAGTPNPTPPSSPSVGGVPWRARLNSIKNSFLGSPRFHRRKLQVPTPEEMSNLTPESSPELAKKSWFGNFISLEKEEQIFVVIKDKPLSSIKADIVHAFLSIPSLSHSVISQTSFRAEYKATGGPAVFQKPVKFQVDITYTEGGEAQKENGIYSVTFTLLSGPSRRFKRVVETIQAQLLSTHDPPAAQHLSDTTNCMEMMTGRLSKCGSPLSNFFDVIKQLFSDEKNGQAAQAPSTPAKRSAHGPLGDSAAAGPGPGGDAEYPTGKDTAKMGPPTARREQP

AMPK = test: Kinase profiling panel; format: biochemical; settings: 0.1 μM inhibitor
GCK = biological target: T3, GCK (Homo sapiens, UniProt Q12851); test: Kinase profiling panel; format: biochemical; settings: read-out: percentage of kinase activity compared with control
T3 sequence (Q12851 1-820): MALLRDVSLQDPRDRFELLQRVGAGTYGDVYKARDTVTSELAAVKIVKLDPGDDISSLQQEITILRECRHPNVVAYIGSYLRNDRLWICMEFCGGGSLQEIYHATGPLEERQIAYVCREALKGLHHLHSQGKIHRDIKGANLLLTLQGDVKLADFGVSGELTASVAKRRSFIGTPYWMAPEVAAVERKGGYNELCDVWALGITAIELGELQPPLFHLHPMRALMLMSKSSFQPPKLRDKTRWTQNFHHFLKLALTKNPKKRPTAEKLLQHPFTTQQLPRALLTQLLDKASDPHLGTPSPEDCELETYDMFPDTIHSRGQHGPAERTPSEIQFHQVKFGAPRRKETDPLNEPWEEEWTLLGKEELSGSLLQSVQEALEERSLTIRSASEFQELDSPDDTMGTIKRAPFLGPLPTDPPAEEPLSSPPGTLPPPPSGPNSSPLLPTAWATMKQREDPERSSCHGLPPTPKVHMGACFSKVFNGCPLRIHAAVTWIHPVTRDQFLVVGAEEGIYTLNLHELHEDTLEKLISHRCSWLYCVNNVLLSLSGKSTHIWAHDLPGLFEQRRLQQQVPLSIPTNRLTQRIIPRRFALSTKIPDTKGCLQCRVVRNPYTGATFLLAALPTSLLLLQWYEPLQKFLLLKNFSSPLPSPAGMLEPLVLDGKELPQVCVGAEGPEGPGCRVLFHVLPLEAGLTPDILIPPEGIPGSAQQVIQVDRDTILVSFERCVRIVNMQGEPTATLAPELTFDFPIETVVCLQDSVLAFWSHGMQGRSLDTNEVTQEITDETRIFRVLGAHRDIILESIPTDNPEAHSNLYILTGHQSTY

TTK = biological target: T4, TTK (Homo sapiens, UniProt P33981); test: Kinase profiling panel; format: biochemical; settings: read-out: percentage of kinase activity compared with control
T4 sequence (P33981 1-857): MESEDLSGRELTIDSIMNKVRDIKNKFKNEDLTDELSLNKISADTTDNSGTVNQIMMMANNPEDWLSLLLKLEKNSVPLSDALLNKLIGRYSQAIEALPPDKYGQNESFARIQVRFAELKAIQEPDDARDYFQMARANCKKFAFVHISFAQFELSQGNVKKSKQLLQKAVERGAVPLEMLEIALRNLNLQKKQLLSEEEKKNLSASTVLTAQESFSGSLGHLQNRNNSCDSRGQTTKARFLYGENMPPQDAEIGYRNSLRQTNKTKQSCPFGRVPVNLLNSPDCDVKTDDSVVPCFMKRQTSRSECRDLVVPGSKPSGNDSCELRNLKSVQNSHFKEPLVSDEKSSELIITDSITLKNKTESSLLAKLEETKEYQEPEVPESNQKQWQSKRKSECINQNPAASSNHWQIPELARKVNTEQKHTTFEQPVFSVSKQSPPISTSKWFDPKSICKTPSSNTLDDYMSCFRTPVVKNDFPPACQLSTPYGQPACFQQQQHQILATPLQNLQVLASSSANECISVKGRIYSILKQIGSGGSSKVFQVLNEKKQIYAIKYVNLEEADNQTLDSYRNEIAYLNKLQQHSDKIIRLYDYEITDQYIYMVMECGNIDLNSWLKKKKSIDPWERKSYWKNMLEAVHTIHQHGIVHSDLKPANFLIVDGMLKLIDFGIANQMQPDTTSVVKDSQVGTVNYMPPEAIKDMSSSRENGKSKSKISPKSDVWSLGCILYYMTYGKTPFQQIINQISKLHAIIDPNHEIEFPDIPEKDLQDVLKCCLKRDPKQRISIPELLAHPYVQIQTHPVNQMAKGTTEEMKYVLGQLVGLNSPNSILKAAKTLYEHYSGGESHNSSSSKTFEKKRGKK

IRR = IRR (Homo sapiens, UniProt P14616); test: Kinase profiling panel; format: biochemical; settings: read-out: percentage of kinase activity compared with control
CK2 = CK2 (Homo sapiens, UniProt P68400); test: Kinase profiling panel; format: biochemical; settings: read-out: percentage of kinase activity compared with control
PKCα = PKCα (Homo sapiens, UniProt P17252); test: Kinase profiling panel; format: biochemical; settings: read-out: percentage of kinase activity compared with control
PHK = PHK (Homo sapiens, UniProt Q16816); test: Kinase profiling panel; format: biochemical; settings: read-out: percentage of kinase activity compared with control
IGF-1R = IGF-1R (Homo sapiens, UniProt P08069); test: Kinase profiling panel; format: biochemical; settings: read-out: percentage of kinase activity compared with control
LRRK2 = settings: cited from earlier work
FGFR1 = FGFR1 (Homo sapiens, UniProt P11362); test: Kinase profiling panel; format: biochemical; settings: read-out: percentage of kinase activity compared with control
Aurora B kinase = Aurora B kinase (Homo sapiens, UniProt Q96GD4); test: Kinase profiling panel; format: biochemical; settings: read-out: percentage of kinase activity compared with control
Aurora B kinase, sequence (Q96GD4 whole entry): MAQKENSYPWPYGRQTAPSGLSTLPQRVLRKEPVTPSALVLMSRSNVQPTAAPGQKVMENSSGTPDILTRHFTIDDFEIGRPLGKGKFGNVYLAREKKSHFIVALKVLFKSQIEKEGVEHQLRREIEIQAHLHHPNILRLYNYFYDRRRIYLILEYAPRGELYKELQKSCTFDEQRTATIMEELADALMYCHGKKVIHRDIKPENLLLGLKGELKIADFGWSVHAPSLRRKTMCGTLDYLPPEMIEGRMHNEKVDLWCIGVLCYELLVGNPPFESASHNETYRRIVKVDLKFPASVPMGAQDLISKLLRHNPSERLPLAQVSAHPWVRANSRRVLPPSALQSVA

SGK1 = biological target: T5, SGK1 (Homo sapiens, UniProt O00141); test: Kinase profiling panel; format: biochemical; settings: read-out: percentage of kinase activity compared with control
T5 sequence (O00141 1-431): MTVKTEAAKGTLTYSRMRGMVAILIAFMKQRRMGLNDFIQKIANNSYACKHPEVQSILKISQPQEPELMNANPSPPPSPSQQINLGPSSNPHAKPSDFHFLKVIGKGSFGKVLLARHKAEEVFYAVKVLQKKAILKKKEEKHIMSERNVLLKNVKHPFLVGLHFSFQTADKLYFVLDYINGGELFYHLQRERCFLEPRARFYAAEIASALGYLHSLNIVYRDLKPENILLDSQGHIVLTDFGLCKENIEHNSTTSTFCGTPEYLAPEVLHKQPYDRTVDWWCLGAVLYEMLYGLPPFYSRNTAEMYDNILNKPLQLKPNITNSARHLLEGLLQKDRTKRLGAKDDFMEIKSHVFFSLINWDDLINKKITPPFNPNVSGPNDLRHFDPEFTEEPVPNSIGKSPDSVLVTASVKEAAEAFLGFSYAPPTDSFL

[5] = biological target: endogenous LRRK2 from Swiss-3T3 cells (Mus musculus, UniProt Q5S006); test: Kinase assay of immunoprecipitated endogenous LRRK2 with Nictide; format: biochemical; settings: Swiss-3T3 immunoprecipitates, Nictide substrate
endogenous LRRK2 from Swiss-3T3 cells, sequence (Q5S006 whole entry): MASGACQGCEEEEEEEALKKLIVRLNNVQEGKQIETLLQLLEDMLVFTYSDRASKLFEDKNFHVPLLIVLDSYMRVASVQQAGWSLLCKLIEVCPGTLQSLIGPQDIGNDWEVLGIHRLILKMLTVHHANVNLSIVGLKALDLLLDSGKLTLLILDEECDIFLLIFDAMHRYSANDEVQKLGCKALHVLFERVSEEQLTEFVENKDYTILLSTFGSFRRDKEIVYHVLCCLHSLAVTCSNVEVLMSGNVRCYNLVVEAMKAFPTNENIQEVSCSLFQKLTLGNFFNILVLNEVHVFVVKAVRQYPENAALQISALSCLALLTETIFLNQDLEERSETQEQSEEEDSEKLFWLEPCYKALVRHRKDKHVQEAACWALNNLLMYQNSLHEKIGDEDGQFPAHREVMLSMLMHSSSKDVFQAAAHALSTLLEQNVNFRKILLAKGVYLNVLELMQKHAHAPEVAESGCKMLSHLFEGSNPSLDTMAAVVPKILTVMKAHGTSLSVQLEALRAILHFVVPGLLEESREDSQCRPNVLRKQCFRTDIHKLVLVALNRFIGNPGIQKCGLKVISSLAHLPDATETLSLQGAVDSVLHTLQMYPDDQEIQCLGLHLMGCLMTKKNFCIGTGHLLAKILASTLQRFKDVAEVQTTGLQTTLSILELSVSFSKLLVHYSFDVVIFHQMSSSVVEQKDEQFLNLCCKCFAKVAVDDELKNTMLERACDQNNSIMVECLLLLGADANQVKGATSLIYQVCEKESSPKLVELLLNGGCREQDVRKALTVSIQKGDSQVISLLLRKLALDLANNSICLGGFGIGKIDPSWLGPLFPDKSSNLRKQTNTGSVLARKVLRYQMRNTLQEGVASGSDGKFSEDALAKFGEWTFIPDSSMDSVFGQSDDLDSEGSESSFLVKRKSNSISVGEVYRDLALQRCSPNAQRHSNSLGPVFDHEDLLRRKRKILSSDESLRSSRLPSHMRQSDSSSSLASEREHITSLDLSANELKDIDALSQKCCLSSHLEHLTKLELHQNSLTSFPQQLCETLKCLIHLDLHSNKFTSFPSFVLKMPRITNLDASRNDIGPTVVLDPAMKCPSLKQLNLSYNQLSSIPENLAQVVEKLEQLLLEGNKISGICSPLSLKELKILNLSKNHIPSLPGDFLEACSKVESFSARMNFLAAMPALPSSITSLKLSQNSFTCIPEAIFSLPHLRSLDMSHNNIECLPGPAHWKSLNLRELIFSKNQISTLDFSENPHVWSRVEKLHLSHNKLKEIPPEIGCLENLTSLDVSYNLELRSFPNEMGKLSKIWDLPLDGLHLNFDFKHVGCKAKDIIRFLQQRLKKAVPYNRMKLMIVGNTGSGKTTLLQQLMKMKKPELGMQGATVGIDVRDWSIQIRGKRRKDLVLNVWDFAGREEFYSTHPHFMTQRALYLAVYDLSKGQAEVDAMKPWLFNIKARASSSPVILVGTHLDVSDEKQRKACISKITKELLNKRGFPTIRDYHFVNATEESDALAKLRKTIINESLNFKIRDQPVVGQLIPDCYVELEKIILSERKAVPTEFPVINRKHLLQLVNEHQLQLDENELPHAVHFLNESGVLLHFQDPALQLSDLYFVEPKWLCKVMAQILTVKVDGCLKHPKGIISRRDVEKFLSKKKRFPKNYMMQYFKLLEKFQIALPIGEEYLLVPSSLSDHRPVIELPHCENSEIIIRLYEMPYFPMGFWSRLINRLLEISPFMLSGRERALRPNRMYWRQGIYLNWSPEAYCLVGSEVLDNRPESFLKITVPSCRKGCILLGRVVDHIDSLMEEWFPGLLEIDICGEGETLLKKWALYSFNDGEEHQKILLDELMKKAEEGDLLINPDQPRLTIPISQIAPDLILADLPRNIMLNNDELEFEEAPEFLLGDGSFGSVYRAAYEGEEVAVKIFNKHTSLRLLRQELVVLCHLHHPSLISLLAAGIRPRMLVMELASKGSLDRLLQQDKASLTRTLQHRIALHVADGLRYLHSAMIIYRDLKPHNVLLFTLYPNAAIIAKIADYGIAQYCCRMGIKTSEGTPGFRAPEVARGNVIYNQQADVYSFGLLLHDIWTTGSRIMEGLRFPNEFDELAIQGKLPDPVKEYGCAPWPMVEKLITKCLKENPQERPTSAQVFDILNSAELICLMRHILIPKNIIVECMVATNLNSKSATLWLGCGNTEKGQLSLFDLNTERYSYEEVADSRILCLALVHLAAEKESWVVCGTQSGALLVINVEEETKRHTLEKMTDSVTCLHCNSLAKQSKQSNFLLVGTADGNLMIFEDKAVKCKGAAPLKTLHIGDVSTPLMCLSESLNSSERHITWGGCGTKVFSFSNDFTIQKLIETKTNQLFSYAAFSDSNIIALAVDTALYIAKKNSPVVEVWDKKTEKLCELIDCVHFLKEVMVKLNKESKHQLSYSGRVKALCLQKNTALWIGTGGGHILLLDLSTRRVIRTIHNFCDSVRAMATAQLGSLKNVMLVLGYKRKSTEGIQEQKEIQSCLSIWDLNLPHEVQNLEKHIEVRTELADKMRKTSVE

PAK4 = PAK4 (Homo sapiens, UniProt O96013); test: Kinase profiling panel; format: biochemical; settings: read-out: percentage of kinase activity compared with control
PAK4, sequence (O96013 whole entry): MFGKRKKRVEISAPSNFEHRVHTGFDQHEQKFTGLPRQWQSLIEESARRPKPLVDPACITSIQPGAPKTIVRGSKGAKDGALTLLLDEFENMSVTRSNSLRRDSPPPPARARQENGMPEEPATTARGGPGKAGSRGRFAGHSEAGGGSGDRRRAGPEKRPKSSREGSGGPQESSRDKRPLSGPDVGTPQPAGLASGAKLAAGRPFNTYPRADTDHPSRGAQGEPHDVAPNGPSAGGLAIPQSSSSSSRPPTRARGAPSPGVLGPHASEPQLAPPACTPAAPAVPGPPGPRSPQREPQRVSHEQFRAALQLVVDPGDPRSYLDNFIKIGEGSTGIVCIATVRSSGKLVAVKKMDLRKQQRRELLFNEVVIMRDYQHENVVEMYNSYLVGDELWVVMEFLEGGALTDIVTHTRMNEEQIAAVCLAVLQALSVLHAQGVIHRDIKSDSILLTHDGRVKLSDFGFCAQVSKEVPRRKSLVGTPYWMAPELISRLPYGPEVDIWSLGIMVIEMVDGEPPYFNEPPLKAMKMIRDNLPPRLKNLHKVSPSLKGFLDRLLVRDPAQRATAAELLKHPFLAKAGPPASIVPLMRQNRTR

inhibition of LRRK2 at high dose (in words) ([1]; doses as high as 30 μM): does not significantly inhibit
Structure (SMILES): CC1=C(C(=O)Nc2cc3cn[nH]c3cc2F)C(c2ccc(C(F)(F)F)cc2)CC(=O)N1 (stereo not shown) [GSK429286A]
effect on ERM protein phosphorylation [2]: did not inhibit
effect on phosphorylation of MYPT at Thr850 [3]: ablated phosphorylation

Structure (SMILES): CCN(CC)CCNC(=O)c1c(C)[nH]c(/C=C2\C(=O)Nc3ccc(F)cc32)c1C [Sunitinib, sunitinib]
number of kinases significantly inhibited [4]: 12
remaining activity at 1 µM (SmMLCK): 26 ± 3%
remaining activity at 1 µM (BRSK2): 40 ± 6%
percentage of kinase activity compared with control (AMPK): 51 ± 3%
remaining activity at 1 µM (GCK): 11 ± 1%
remaining activity at 1 µM (TTK): 72 ± 6%
remaining activity at 1 µM (IRR): 77 ± 24%
remaining activity at 1 µM (CK2): 72 ± 1%
effect on ERM protein phosphorylation [2]: did not inhibit
remaining activity at 1 µM (PKCα): 77 ± 9%
remaining activity at 0.1 µM (PHK): 11 ± 1%
remaining activity at 1 µM (IGF-1R): 33 ± 6%
remaining activity at 0.1 µM (FGFR1): 77 ± 2%
remaining activity at 0.1 µM (Aurora B kinase): 72 ± 5%
remaining activity at 1 µM (SGK1): 26 ± 5%
effect on protein kinase activity in LRRK2 immunoprecipitate [5]: suppressed
remaining activity at 1 µM (PAK4): 72 ± 5%

Structure (SMILES): CCn1c(-c2nonc2N)nc2cnc(Oc3cccc(NC(=O)c4ccc(OCCN5CCOCC5)cc4)c3)cc21 [GSK269962A]
number of kinases significantly inhibited [4]: seven
effect on ERM protein phosphorylation [2]: did not inhibit
effect on phosphorylation of MYPT at Thr850 [3]: ablated phosphorylation

Structure (SMILES): C[C@@H](N)[C@H]1CC[C@H](C(=O)Nc2ccncc2)CC1 [Y-27632]
effect on ERM protein phosphorylation [2]: did not inhibit
effect on phosphorylation of MYPT at Thr850 [3]: ablated phosphorylation

Structure (SMILES): Cc1cncc2cccc(S(=O)(=O)N3CCCNC[C@@H]3C)c12 [H-1152, (S)-(+)-2-methyl-1-[(4-methyl-5-isoquinoline)sulfonyl]-homopiperazine]
effect on ERM protein phosphorylation [2]: did not inhibit
effect on phosphorylation of MYPT at Thr850 [3]: ablated phosphorylation
effect on protein kinase activity in LRRK2 immunoprecipitate [5]: suppressed

Structure (SMILES): O=S(=O)(c1cccc2cnccc12)N1CCCNCC1 [HA-1077, fasudil]
inhibition of LRRK2[G2019S] (in words) [1]: weakly

Structure (SMILES): O=S(=O)(NCCNCC=Cc1ccc(Br)cc1)c1cccc2cnccc12 [H-89, N-[2-(p-bromocinnamylamino)ethyl]-5-isoquinolinesulfonamide]
inhibition of LRRK2[G2019S] (in words) [1]: weakly
